Test results: patent US20220401514A1, “ANTIMICROBIAL, BACTERIOPHAGE-DERIVED POLYPEPTIDES AND THEIR USE AGAINST GRAM-NEGATIVE AND ACID-FAST BACTERIA” (CONTRAFECT CORPORATION, priority 2019, published 2022)
Like-named read-outs stand apart in the source and are kept apart here.

Legend:
[1] = tested on: Pseudomonas aeruginosa; experiment: microbe, parasite or virus in culture; assay type: cell-based; conditions: for MIC: CAA without human serum
[2] = Stability assessment in 100% CAA; assay type: in vitro ADME; design: unit not given beside the values
Method: Stability was assessed after incubation in 100% human serum at 37° C. after 10 minutes, 1 hour, and 2 hours.
Stability assessment was further conducted in 100% CAA and rabbit serum using the same methodology discussed above.

[3] = tested on: P. aeruginosa strain CFS-1292; experiment: MIC in presence and absence of NaCl (140 mM); assay type: cell-based, Pseudomonas aeruginosa
Method: Certain Chp peptides were evaluated over a range of physiological NaCl levels and pH values, and were further evaluated for activity in the presence of various divalent cations.

[4] = tested on: M. avium; experiment: 45 hr MIC against M. avium (NTM); assay type: cell-based, Mycobacterium avium; conditions: M. avium Chester ATCC 700898
[5] = tested on: M. scrofulaceum; experiment: 45 hr MIC against M. scrofulaceum (NTM); assay type: cell-based, Mycobacterium scrofulaceum; conditions: M. scrofulaceum Prissick and Masson ATCC 19981
[6] = tested on: P. aeruginosa strain CFS-1292; experiment: MIC in presence and absence of Survanta pulmonary surfactant; assay type: cell-based, Pseudomonas aeruginosa
[7] = tested on: Klebsiella pneumoniae; assay type: cell-based
Method: Determination of Minimal Inhibitory Concentrations (MIC).
Additional MIC testing was performed for several peptides against the ESKAPE pathogens Escherichia coli, Enterobacter cloacae, Klebsiella pneumoniae, and Acinetobacter baumannii, in CAA supplemented with human serum (Table D).

[8] = tested on: Klebsiella pneumoniae; experiment: microbe, parasite or virus in culture; assay type: cell-based; conditions: CAA without human serum
[9] = tested on: Acinetobacter baumannii; experiment: microbe, parasite or virus in culture; assay type: cell-based
[10] = tested on: S. maltophilia; experiment: MIC against S. maltophilia isolates; assay type: cell-based, Stenotrophomonas maltophilia; conditions: S. maltophilia isolates (n per peptide in table)
How it was run: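 MIC in μg/mL for Chp peptides across several S. maltophilia isolates, n denoting the number of isolates tested.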

[11] = tested on: M. smegmatis; experiment: 45 hr MIC against M. smegmatis (NTM), Mueller Hinton broth; assay type: cell-based, Mycobacterium smegmatis
[12] = tested on: Pseudomonas aeruginosa, Escherichia coli, Enterobacter cloacae, Klebsiella pneumoniae, and Acinetobacter baumannii; experiment: MIC against a range of Gram-negative organisms (statements covering several species); assay type: cell-based; conditions: Tables 40-44 isolates
How it was run: (§1)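 Medium: CAA with added human serum. Peptides tested for minimal inhibitory concentration against each strain.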

[13] = tested on: M. intracellulare; experiment: 45 hr MIC against M. intracellulare (NTM); assay type: cell-based, Mycobacterium intracellulare; conditions: M. intracellulare (Cuttino and McCabe) Runyon ATCC 13950
[14] = tested on: Enterobacter cloacae; experiment: microbe, parasite or virus in culture; assay type: cell-based
How it was run: as §1

[15] = tested on: Escherichia coli; experiment: microbe, parasite or virus in culture; assay type: cell-based
How it was run: as §1

[16] = tested on: M. fortuitum; experiment: 45 hr MIC against M. fortuitum (NTM); assay type: cell-based, Mycobacterium fortuitum; conditions: M. fortuitum subsp. Fortuitum da Costa Cruz. ATCC 6841
[17] = tested on: P. aeruginosa strain CFS-1292; experiment: MIC at pH 6, pH 7 and pH 8; assay type: cell-based, Pseudomonas aeruginosa
Method: The Chp peptides were further evaluated at varying pH levels. The MIC values were determined at pH 6, pH 7, and pH 8 for 18 different Chp peptides against P. aeruginosa strain CFS-1292. […]

[18] = tested on: P. aeruginosa strain CFS-1292; experiment: MIC in presence of mouse, rat, rabbit and human serum ([…] each); assay type: cell-based, Pseudomonas aeruginosa; conditions: P. aeruginosa CFS-1292
Method: The activity of several Chp peptides against P. aeruginosa strain CFS-1292 in animal serum was evaluated. […] Rat, mouse, and rabbit serum were all obtained from pooled gender samples.

[19] = tested on: P. aeruginosa strain CFS-1292; experiment: MIC in presence of divalent cations (calcium chloride, magnesium sulfate); assay type: cell-based, Pseudomonas aeruginosa
Method: Next, Chp peptides were evaluated in the presence of different divalent cations. […]; (2) in the presence of 2 mM calcium chloride alone; (3) in the presence of 1 mM magnesium sulfate alone; and (4) in the presence of both 2 mM calcium chloride and 1 mM magnesium sulfate. […]

[20] = P. aeruginosa isolates (n per peptide in table)
[21] = K. pneumoniae isolates (n per peptide in table)
[22] = A. baumannii isolates (n per peptide in table)
[23] = E. cloacae isolates (n per peptide in table)
[24] = E. coli isolates (n per peptide in table)

MARRYRLSRRRSRRLFSRTALRMHRRNRLRRIMRGGIRF [Chp4]
MIC ([1]; P. aeruginosa 453 (Human clinical isolate, HSS), RSC 1292): 4 µg/mL | MIC ([1]; P. aeruginosa (ATCC 14213, human hip wound), RSC 1111): 4 µg/mL | MIC ([1]; P. aeruginosa (ATCC 15152, abscess in middle ear), RSC 1110): 4 µg/mL | MIC ([1]; P. aeruginosa (ATCC 15692, infected wound), RSC 489): 4 µg/mL | MIC ([1]; P. aeruginosa (ATCC 15692, infected wound), RSC 1115): 4 µg/mL | MIC ([1]; P. aeruginosa (ATCC 17646, human liver abscess), RSC 1109): 4 µg/mL | MIC ([1]; P. aeruginosa (ATCC 19142, tracheobronchial secretion), RSC 1108): 4 µg/mL | MIC ([1]; P. aeruginosa (ATCC 25102, bacteriophage host), RSC 1114): 4 µg/mL | MIC ([1]; P. aeruginosa (ATCC 27853, MIC control strain), RSC 815): 4 µg/mL | MIC ([1]; P. aeruginosa (ATCC BAA-27, lab strain), RSC 1113): 4 µg/mL | MIC ([1]; P. aeruginosa (PAO1, alternate source, HER1018), RSC 490): 4 µg/mL | MIC50 [1, 20]: 1 µg/mL | MIC100 [1, 20]: 1 µg/mL | MIC Range [1, 20]: 0.5 to 1 µg/mL | MIC (100% CAA) [2]: 0.25 | Fold change in MIC ([3]; CAA + 140 mM NaCl versus CAA without added NaCl): 1 | MIC, CAA + 140 mM NaCl ([3]; CAA + 140 mM NaCl, P. aeruginosa CFS-1292): 0.5 µg/mL | MIC, CAA (no added NaCl) ([3]; CAA, no added NaCl, P. aeruginosa CFS-1292): 0.5 µg/mL | 45 hr MIC [4]: 1 µg/mL | 45 hr MIC [5]: 2 µg/mL | MIC ([6]; CAA media + 0.19 mg/mL Survanta): 0.5 µg/mL | MIC ([6]; CAA media + […] Survanta): 0.5 µg/mL | MIC ([6]; CAA media alone): 0.5 µg/mL | MIC50 [7, 21]: 1 µg/mL | MIC100 [7, 21]: 1 µg/mL | MIC Range [7, 21]: 0.5 to 1 µg/mL | MIC ([7]; Klebsiella pneumoniae HM-44, CAA supplemented with human serum): 0.25 µg/mL | MIC ([8]; Klebsiella pneumoniae (ATCC 10031, MIC control strain), RSC 814): 4 µg/mL | MIC ([8]; Klebsiella pneumoniae (g2-3 HM35K), RSC 1138): 4 µg/mL | MIC ([8]; Klebsiella sp. (HM-44; colon, Crohn's disease), RSC 1139): 4 µg/mL | MIC ([8]; Klebsiella spp. (HM-223; gut of Crohn's disease patient), RSC 1131): 4 µg/mL | MIC50 [9, 22]: 0.5 µg/mL | MIC100 [9, 22]: 1 µg/mL | MIC Range [9, 22]: 0.25 to 1 µg/mL | MIC ([9]; Acinetobacter baumannii (clinical isolate HSS), RSC 30, CAA without human serum): 4 µg/mL | MIC ([9]; Acinetobacter baumannii (clinical isolate HSS), RSC 32, CAA without human serum): 4 µg/mL | MIC ([9]; Acinetobacter baumannii ATCC BAA 747, CAA supplemented with human serum): 0.125 µg/mL | MIC50 [10]: 0.5 µg/mL | MIC100 [10]: 2 µg/mL | MIC Range [10]: 0.5 to 8 µg/mL | 45 hr MIC ([11]; M. smegmatis MC^2 155, Run #1): 4 µg/mL | 45 hr MIC ([11]; M. smegmatis MC^2 155, Run #2): 4 µg/mL | activity (good = MIC100 of ≤4) against all of P. aeruginosa, K. pneumoniae, A. baumannii, E. cloacae, and E. coli [12]: good activity | 45 hr MIC [13]: 1 µg/mL | MIC50 [14, 23]: 0.5 µg/mL | MIC100 [14, 23]: 1 µg/mL | MIC Range [14, 23]: 0.25 to 2 µg/mL | MIC ([14]; Enterobacter cloacae (ATCC 13047, MIC control strain), RSC 1240, CAA without human serum): 4 µg/mL | MIC ([14]; Enterobacter cloacae ATCC 13047, CAA supplemented with human serum): 1 µg/mL | MIC ([15]; E. coli (ATCC 25922, MIC control strain), RSC 813, CAA without human serum): 2 µg/mL | MIC ([15]; E. coli (HM346, colon, Crohn's disease), RSC 1212, CAA without human serum): 4 µg/mL | MIC50 [15, 24]: 1 µg/mL | MIC100 [15, 24]: 2 µg/mL | MIC Range [15, 24]: 0.5 to 4 µg/mL | MIC ([15]; Escherichia coli ATCC 25922, CAA supplemented with human serum): 0.5 µg/mL | 45 hr MIC [16]: 4 µg/mL | MIC ([17]; CAA media (pH 7)): 0.5 µg/mL | MIC ([17]; pH 6): 0.25 µg/mL | MIC ([17]; pH 7): 0.5 µg/mL | MIC ([17]; pH 8): 1 µg/mL | MIC BALB/C Mouse Serum ([18]; BALB/C mouse serum […]): 32 µg/mL | MIC CAA ([18]; CAA): 0.5 µg/mL | MIC New Zealand White Rabbit Serum ([18]; New Zealand White rabbit serum […]): 2 µg/mL | MIC Sprague Dawley Rat Serum ([18]; Sprague Dawley rat serum […]): 2 µg/mL | MIC Human Serum ([18]; human serum […]): 0.5 µg/mL | MIC ([19]; CAA media + 1 mM MgSO4): 0.5 µg/mL | MIC ([19]; CAA media + 2 mM CaCl2): 1 µg/mL | MIC ([19]; CAA media + + 1 mM MgSO4): 0.125 µg/mL | MIC ([19]; CAA media alone): 0.5 µg/mL
